Results published in patent publication US20020123513A1, “Use of glycogen phosphorylase inhibitors to inhibit tumor growth” (priority 2000, published 2002).

Experiments:
[1] = molecular target: T1, human muscle glycogen phosphorylase a (HMGPa) (Homo sapiens, UniProt P11217); experiment: GPa activity assay, reverse direction (release of inorganic phosphate from glucose-1-phosphate), HMGPa; assay type: biochemical; settings: recombinant human muscle GPa, glucose present
T1 construct: made in house; host or cells: E. coli XL-1 Blue (pKK233-2)
T1 sequence (P11217 1-842): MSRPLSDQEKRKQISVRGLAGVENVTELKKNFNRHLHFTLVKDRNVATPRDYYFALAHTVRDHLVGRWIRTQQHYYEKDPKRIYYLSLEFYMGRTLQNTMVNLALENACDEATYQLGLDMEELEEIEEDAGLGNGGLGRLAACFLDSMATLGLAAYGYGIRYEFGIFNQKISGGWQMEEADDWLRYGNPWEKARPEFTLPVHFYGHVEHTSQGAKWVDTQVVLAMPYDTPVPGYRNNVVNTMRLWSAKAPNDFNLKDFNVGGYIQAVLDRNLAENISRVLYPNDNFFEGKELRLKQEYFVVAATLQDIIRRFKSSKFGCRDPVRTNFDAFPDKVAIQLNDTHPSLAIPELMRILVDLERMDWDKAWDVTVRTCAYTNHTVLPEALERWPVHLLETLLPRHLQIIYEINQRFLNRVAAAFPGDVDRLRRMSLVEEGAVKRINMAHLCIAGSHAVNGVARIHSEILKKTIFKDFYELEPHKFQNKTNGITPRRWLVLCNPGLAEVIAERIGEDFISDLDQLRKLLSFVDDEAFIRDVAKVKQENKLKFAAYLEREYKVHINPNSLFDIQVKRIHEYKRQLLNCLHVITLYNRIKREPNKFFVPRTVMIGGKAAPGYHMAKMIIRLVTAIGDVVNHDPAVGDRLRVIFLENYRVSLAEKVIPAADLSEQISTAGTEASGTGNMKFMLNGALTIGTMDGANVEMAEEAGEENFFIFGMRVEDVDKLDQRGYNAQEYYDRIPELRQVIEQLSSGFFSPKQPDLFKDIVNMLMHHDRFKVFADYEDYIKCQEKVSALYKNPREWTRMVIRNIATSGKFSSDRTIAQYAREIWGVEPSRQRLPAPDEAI
Description: (§1) In this invention, enzyme activity is determined by measurement of the reverse activity of GPa, i.e., by measuring the release of phosphate due to the incorporation of glucose-1-phosphate into glycogen, where the amount of phosphate released is determined using the spectrophotometric method and experimental conditions described hereinbelow.
(§2) The three different purified glycogen phosphorylase (GP) isoenzymes from a human source, wherein glycogen phosphorylase is in the activated “a” state (referred to as glycogen phosphorylase a, or the abbreviation GPa), and referred to here as human liver glycogen phosphorylase a (HLGPa), human muscle glycogen phosphorylase a (HMGPa), and human brain glycogen phosphorylase a (HBGPa), can be obtained by the following procedures.
(§3) The effect of the compounds of Formula I or IA on the activity of the activated form of glycogen phosphorylase (GPa) can be determined by one of two methods; glycogen phosphorylase a activity is measured in the forward direction by monitoring the production of glucose-1-phosphate from glycogen or by following the reverse reaction, measuring glycogen synthesis from glucose-I-phosphate by the release of inorganic phosphate. All reactions are run in triplicate in 96-well microtiter plates and the change in absorbance due to formation of the reaction product is measured at the wavelength specified below in a MCC/340 MKII Elisa Reader (Lab Systems, Finland), connected to a Titertech Microplate Stacker (ICN Biomedical Co, Huntsville, Ala.).
(§4) Buffer B is at pH 7.2 and contains 50 mM HEPES, 100 mM KCl, 2.5 mM EGTA, 2.5 mM MgCl2 and 0.5 mM dithiothreitol. […] The compounds to be tested are added as 5 μL of solution in 14% DMSO prior to the addition of the enzyme. […] After a 20 minute incubation at room temperature, the absorbance is measured at 620 nm.
(§5) The above assays carried out with a range of concentrations of test compound allows the determination of an IC50 value (as defined hereinabove, see e.g., p. 14) for the in vitro inhibition of GPa enzyme activity by that test compound.

[2] = molecular target: T2, human liver glycogen phosphorylase a (HLGPa) (Homo sapiens, UniProt P06737); experiment: GPa activity assay, reverse direction (release of inorganic phosphate from glucose-1-phosphate), HLGPa; assay type: biochemical; settings: recombinant human liver GPa, glucose present
T2 construct: made in house; host or cells: E. coli XL-1 Blue (pKK233-2) or Sf9 insect cells (pBlueBac II baculovirus)
T2 sequence (P06737 1-847): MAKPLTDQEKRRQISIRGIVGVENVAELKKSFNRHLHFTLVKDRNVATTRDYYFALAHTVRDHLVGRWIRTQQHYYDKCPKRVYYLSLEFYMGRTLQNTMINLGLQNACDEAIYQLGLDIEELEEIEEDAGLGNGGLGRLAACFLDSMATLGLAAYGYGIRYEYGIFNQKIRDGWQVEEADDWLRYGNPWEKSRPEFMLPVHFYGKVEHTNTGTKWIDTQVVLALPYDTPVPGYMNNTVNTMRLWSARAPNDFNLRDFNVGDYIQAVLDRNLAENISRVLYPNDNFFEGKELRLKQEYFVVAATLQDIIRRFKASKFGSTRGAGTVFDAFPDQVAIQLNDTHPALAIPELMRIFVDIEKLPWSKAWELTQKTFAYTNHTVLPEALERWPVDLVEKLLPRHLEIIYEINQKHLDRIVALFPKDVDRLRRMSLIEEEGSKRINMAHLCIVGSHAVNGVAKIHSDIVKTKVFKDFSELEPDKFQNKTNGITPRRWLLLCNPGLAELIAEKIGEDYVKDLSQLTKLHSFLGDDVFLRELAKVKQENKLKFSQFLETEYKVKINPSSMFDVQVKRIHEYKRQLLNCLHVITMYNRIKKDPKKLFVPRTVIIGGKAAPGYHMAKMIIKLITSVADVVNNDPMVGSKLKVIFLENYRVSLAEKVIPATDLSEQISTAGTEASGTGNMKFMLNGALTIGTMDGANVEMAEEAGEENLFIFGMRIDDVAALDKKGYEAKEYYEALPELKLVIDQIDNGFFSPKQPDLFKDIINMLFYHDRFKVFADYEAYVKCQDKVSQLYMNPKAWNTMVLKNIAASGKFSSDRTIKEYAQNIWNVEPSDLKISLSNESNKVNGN
Description: as §1, §2, §3, §4, §5

Row | IC50 [1] | IC50 [2] | Compound
1 | 84 nM | 65 nM | O=C(N[C@@H](Cc1ccccc1)C(=O)N1CC(=NO)C1)c1cc2cc(Cl)ccc2[nH]1 [5-chloro-1H-indole-2-carboxylic acid [(1S)-benzyl-2-(3-hydroxyimino-azetidin-1-yl)-2-oxo-ethyl]-amide]
2 | 433 nM | 307 nM | O=C(NCC(=O)N1CCSC1)c1cc2cc(Cl)ccc2[nH]1 [5-chloro-1H-indole-2-carboxylic acid (2-oxo-2-thiazolidin-3-yl-ethyl)-amide]
3 | 71 nM | 137 nM | O=C(N[C@@H](Cc1ccccc1)C(=O)N1C[C@H](O)[C@@H](O)C1)c1cc2cc(Cl)ccc2[nH]1 [5-chloro-1H-indole-2-carboxylic acid [(1S)-benzyl-2-((3S,4S)-dihydroxy-pyrrolidin-1-yl)-2-oxo-ethyl-amide]
4 | 385 nM | 59 nM | O=C(N[C@@H](Cc1ccccc1)[C@@H](O)C(=O)N1C[C@@H](O)[C@@H](O)C1)c1cc2cc(Cl)ccc2[nH]1 [5-chloro-1H-indole-2-carboxylic acid [(1S)-benzyl-3-(cis-3,4-dihydroxy-pyrrolidin-1-yl)-(2R)-hydroxy-3-oxopropyl]-amide]
5 | 121 nM | 65 nM | O=C(N[C@@H](Cc1ccccc1)C(=O)N1CC(O)C1)c1cc2cc(Cl)ccc2[nH]1 [5-chloro-1H-indole-2-carboxylic acid [(1S)-benzyl-2-(3-hydroxy-azetidin-1-yl)-2-oxo-ethyl]-amide]
6 | 85 nM | 45 nM | O=C(NC(Cc1ccccc1)C(=O)N1CCC(O)C1)c1cc2cc(Cl)ccc2[nH]1 (centres unmarked) [5-chloro-1H-indole-2-carboxylic acid [1-benzyl-2-(3-hydroxypyrrolidin-1-yl)-2-oxo-ethyl]-amide]
7 | 96 nM | 54 nM | O=C(N[C@@H](Cc1ccccc1)[C@@H](O)C(=O)N1CC[C@H](O)C1)c1cc2cc(Cl)ccc2[nH]1 [5-chloro-1H-indole-2-carboxylic acid [(1S)-benzyl-(2R)-hydroxy-3-((3S)-hydroxy-pyrrolidin-1-yl)-3-oxopropyl]-amide]
8 | 90 nM | 73 nM | O=C(N[C@@H](Cc1ccccc1)[C@@H](O)C(=O)N1C[C@H](O)[C@@H](O)C1)c1cc2cc(Cl)ccc2[nH]1 [5-chloro-1H-indole-2-carboxylic acid [(1S)-benzyl-(2R)-hydroxy-3-((3S,4S)-dihydroxy-pyrrolidin-1-yl)-3-oxopropyl]-amide]
9 | 706 nM | 236 nM | O=C(N[C@@H](Cc1ccccc1)[C@@H](O)C(=O)N1CC(O)C1)c1cc2cc(Cl)ccc2[nH]1 [5-chloro-1H-indole-2-carboxylic acid [(1S)-benzyl-3-((3-hydroxyazetidin-1-yl)-(2R)-hydroxy-3-oxopropyl]-amide]
10 | 97 nM | 30 nM | O=C(N[C@@H](Cc1ccccc1)C(=O)N1C[C@@H](O)[C@@H](O)C1)c1cc2cc(Cl)ccc2[nH]1 [5-chloro-1H-indole-2-carboxylic acid [(1S)-benzyi-2-(cis-3,4-dihydroxypyrrolidin-1-yl)-2-oxo-ethyl]-amide]
